Where two headings read alike, the source gives them in different places.
Assays:
[1] = test system: heme detoxification in Pf NF54 trophozoites; test: Pyridine-based cellular heme fractionation assay; type: cell-based, Plasmodium falciparum; conditions: Pf NF54, 1.5 to 2.5 × IC50
Pf_Polδ = type: cell-based, Plasmodium falciparum; conditions: Pf_Polδ parasites exposed to 45 nM (3 × IC50)
[2] = Snapshot in vivo PK, dried blood spots, LC-MS/MS; conditions: mouse, po; for k el: ke
[3] = test system: compound 1-resistant clones Fl2-C4 and Fl3-C3; type: cell-based, Plasmodium falciparum; conditions: clones Fl2-C4 and Fl3-C3, standard 72 h drug-response assay
Pf Dd2 clone B2 (Dd2-B2) = type: cell-based, Plasmodium falciparum; conditions: triplicate flasks of 2 × 10^9 Dd2-B2 parasites, 3× to 5× IC50
[4] = test system: FCB WT and FCB KD parasite lines; test: Potency against FCB lines with different pfmdr1 copy numbers; type: cell-based, Plasmodium falciparum; conditions: FCB WT (two copies of pfmdr1) versus FCB KD (one functional copy)
Pf 3D7 = type: cell-based; conditions: Plasmodium falciparum, 3D7, read-out: Pf3D7 IC50±SD
PfDd2 = type: cell-based; conditions: Plasmodium falciparum, read-out: PfDd2 IC50±SD
[5] = human, 5 h, 1 μM, pH 7.4
HepG2 = conditions: read-out: HepG2 IC50; cytotoxicity; previously published ref 7 (Leven et al.); cited from earlier work
[6] = 4 × 30 mg/kg oral, monitored up to 30 days

In the case of `C[C@H]1[C@H](OC(=O)CCC(=O)O)O[C@@H]2O[C@@]3(C)CC[C@H]4[C@H](C)CC[C@@H]1[C@@]24OO3` [AS, artesunate, reference compound], the “cured (number of parasite-free mice on day 30)” value (Plasmodium berghei; 4 × 30 mg/kg oral) is reported as 0/10.
For `Cl.N/C(CC(O)c1c2ccccc2cc2ccccc12)=N\c1ccc(F)cc1` (centres unmarked) [Compound 23, (Z)-3-(Anthracene-9-yl)-N′-(4-fluorophenyl)-3-hydroxypropanimidamide Hydrochloride], the “cured (number of parasite-free mice on day 30)” value (Plasmodium berghei; 4 × 50 mg/kg oral) was 0/3, the “MSD (mean survival time)” value (Plasmodium berghei; 4 × 50 mg/kg oral, monitored up to 30 days) was “euthanized” and the activity (Plasmodium berghei; 4 × 50 mg/kg oral, parasitemia by FACS on day 4, 50 mg/kg) was 44%.
With `COc1ccc(/N=C(\N)CC(O)c2cc3c(F)cc(F)cc3c3cc(C(F)(F)F)ccc23)cc1.Cl` (centres unmarked) [Compound 22, (Z)-3-(1,3-Difluoro-6-(trifluoromethyl)phenanthrene-9-yl)-3-hydroxy-N′-(4-methoxyphenyl)propanimidamide Hydrochloride] the “inhibition of hemoglobin degradation” value [1] was “some inhibition of hemoglobin degradation”, the “outcome of resistance selection” value (Pf_Polδ) was “unable to readily generate resistant parasites” and the AUC(0-inf) ([2]; 3 mg/kg) was 30 ng·h/mL. The AUC(0-t) ([2]; 3 mg/kg) was 28.9 ng·h/mL, the half-life ([2]; 3 mg/kg) was 5.49 h and the k el ([2]; 3 mg/kg, single oral dose 3 mg/kg, mouse I) was 3.69e-05 s⁻¹. It also gave a k el ([2]; 3 mg/kg, single oral dose 3 mg/kg, mouse II) of 3.51e-05 s⁻¹, an AUC(0-inf) ([2]; 10 mg/kg) of 365 ng·h/mL and an AUC(0-t) ([2]; 10 mg/kg) of 361 ng·h/mL. For the same compound, the half-life ([2]; 10 mg/kg) was 5.26 h, the k el ([2]; 10 mg/kg, single oral dose 10 mg/kg, mouse I) was 4.66e-05 s⁻¹ and the k el ([2]; 10 mg/kg, single oral dose 10 mg/kg, mouse II) was 3.66e-05 s⁻¹. The AUC(0-inf) ([2]; 30 mg/kg) was 1310 ng·h/mL, the AUC(0-t) ([2]; 30 mg/kg) was 1080 ng·h/mL and the half-life ([2]; 30 mg/kg) was 9.95 h. The k el ([2]; 30 mg/kg, single oral dose 30 mg/kg, mouse I) was 1.94e-05 s⁻¹, the k el ([2]; 30 mg/kg, single oral dose 30 mg/kg, mouse II) was 2.74e-05 s⁻¹ and the “shift in IC50 value in compound 1-resistant clones” value [3] was 1.6 fold. The cure rate (Plasmodium berghei; 30 mg/kg once daily oral for 4 consecutive days) was 33%, the cure rate (Plasmodium berghei; 50 mg/kg once daily oral for 4 consecutive days) was 66% and the “MSD (mean survival time)” value (Plasmodium berghei; 4 × 3 mg/kg oral) was “euthanized”. The “cured (number of parasite-free mice on day 30)” value (Plasmodium berghei; 4 × 3 mg/kg oral) was 0/3, the “cured (number of parasite-free mice on day 30)” value (Plasmodium berghei; 4 × 10 mg/kg oral) was 0/3 and the “cured (number of parasite-free mice on day 30)” value (Plasmodium berghei; 4 × 30 mg/kg oral) was 1/3. The “MSD (mean survival time)” value (Plasmodium berghei; [6]) was 28 days, the “cured (number of parasite-free mice on day 30)” value (Plasmodium berghei; 4 × 50 mg/kg oral) was 2/3 and the “signs of toxicity during the in vivo studies” value (Plasmodium berghei; mice, oral doses 3-50 mg/kg) was “no obvious signs of toxicity”. For the same compound, the “outcome of resistance selection” value (Pf Dd2 clone B2 (Dd2-B2)) was “no viable parasites after 60 days” and the “effect of pfmdr1 copy number on sensitivity” value [4] was “the decrease from two to one pfmdr1 copy caused a further sensitization”.
In the case of `CCCCN(CCCC)CC(O)c1cc(Cl)cc2c1-c1ccc(Cl)cc1/C2=C/c1ccc(Cl)cc1` (centres unmarked) [LUM, Lumefantrine, reference compound], the “cured (number of parasite-free mice on day 30)” value (Plasmodium berghei; 4 × 30 mg/kg oral) is reported as 3/3.
With `CCN(CC)CCCC(C)Nc1ccnc2cc(Cl)ccc12` (centres unmarked) [CQ, Chloroquine] the IC50 (Pf 3D7) was 6 ± 2 nM, the “cured (number of parasite-free mice on day 30)” value (Plasmodium berghei; 4 × 30 mg/kg oral) was 0/10 and the IC50 (PfDd2) was 230 ± 100 nM.
Work on `CCCCN(CCCC)CCC(O)c1cc2c(Cl)cc(Cl)cc2c2cc(C(F)(F)F)ccc12` (centres unmarked) [HF, Halofantrine] yielded a plasma protein binding [5] of 100%.
For `N/C(CC(O)c1cc2c(F)cc(F)cc2c2cc(C(F)(F)F)ccc12)=N\N=C\c1ccc(F)cc1` (centres unmarked) [Compound 1], the IC50 (HepG2) is given as 27700 nM, the “cured (number of parasite-free mice on day 30)” value (Plasmodium berghei; 4 × 10 mg/kg oral) is given as 2/3 and the “cured (number of parasite-free mice on day 30)” value (Plasmodium berghei; 4 × 30 mg/kg oral) is given as 1/3. The “MSD (mean survival time)” value (Plasmodium berghei; [6]) was 26 days, the “cured (number of parasite-free mice on day 30)” value (Plasmodium berghei; 4 × 50 mg/kg oral) was 1/3 and the “effect of pfmdr1 copy number on sensitivity” value [4] was “the decrease from two to one pfmdr1 copy caused a further sensitization”.

— PMC8211464 (Journal of medicinal chemistry, 2021)
